Data: ChEMBL document CHEMBL1201862, “PubChem BioAssay data set” (2004)
Several values for one entry are separate records, joined by “and”; a condition that tells them apart may be missing. Identical values can stand only once.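 Dose response: 5 concentrations. Exposure: 48 h. Format: 96-well plates. Endpoint: linear interpolation; highest concentration if not reached. Here, GI50 denotes the concentration required for 50% inhibition of growth.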 Activity calls are given as the source filed them. Rule as the data show it: active = GI50 up to about 1.1 µM and inactive = higher.

How the values were obtained:
Assay in all cases: growth of human tumour cells (NCI), 48 h
A498 = test system: A498
A549 = test system: A549
BT-549 = test system: BT-549
DU-145 = test system: DU-145
HCC 2998 = test system: HCC 2998
HOP-62 = test system: HOP-62
HOP-92 = test system: HOP-92
IGROV-1 = test system: IGROV-1
MDA-MB-435 = test system: MDA-MB-435
MDA-N = test system: MDA-N
NCI-H226 = test system: NCI-H226
NCI-H460 = test system: NCI-H460
NCI/ADR-RES = test system: NCI/ADR-RES
OVCAR-5 = test system: OVCAR-5
RXF 631 = test system: RXF 631
SF-295 = test system: SF-295
SK-MEL-5 = test system: SK-MEL-5
SK-OV-3 = test system: SK-OV-3
SNB-19 = test system: SNB-19
T47D = test system: T47D
XF498 = test system: XF498
786-0 = test system: 786-0
ACHN = test system: ACHN
CAKI-1 = test system: CAKI-1
CCRF-CEM = test system: CCRF-CEM
COLO 205 = test system: COLO 205
DLD-1 = test system: DLD-1
DMS-114 = test system: DMS-114
DMS-273 = test system: DMS-273
EKVX = test system: EKVX
HCT-116 = test system: HCT-116
HCT-15 = test system: HCT-15
HL-60 = test system: HL-60
HOP-18 = test system: HOP-18
HT-29 = test system: HT-29
K562 = test system: K562
KM-20L2 = test system: KM-20L2
KM12 = test system: KM12
LOX IMVI = test system: LOX IMVI
LXFL 529 = test system: LXFL 529
M14 = test system: M14
M19-MEL = test system: M19-MEL
Malme-3M = test system: Malme-3M
NCI-H23 = test system: NCI-H23
NCI-H522 = test system: NCI-H522
OVCAR-3 = test system: OVCAR-3
OVCAR-4 = test system: OVCAR-4
OVCAR-8 = test system: OVCAR-8
RPMI-8226 = test system: RPMI-8226
RXF 393 = test system: RXF 393
SF-268 = test system: SF-268
SF-539 = test system: SF-539
SK-MEL-28 = test system: SK-MEL-28
SK-MEL-2 = test system: SK-MEL-2
SN12C = test system: SN12C
SNB-75 = test system: SNB-75
SNB-78 = test system: SNB-78
SW-620 = test system: SW-620
TK-10 = test system: TK-10
U-251 = test system: U-251
UACC-257 = test system: UACC-257
UACC-62 = test system: UACC-62
UO-31 = test system: UO-31
MOLT-4 = test system: MOLT-4
SR = test system: SR

O=C1C(CN(Cc2ccccc2)Cc2ccccc2)CCCC1CN(Cc1ccccc1)Cc1ccccc1 (stereo not drawn) was tested, and the GI50 (A498) was > 78.9 µM (inactive) and 41.5 µM (inactive), the GI50 (A549) was > 54.5 µM (inactive) and the GI50 (BT-549) was > 100 µM (inactive) and > 79.8 µM (inactive). For the same compound, the GI50 (DU-145) was > 100 µM (inactive), the GI50 (HCC 2998) was > 53.2 µM (inactive) and > 69.7 µM (inactive) and the GI50 (HOP-62) was > 62.1 µM (inactive). For the same compound, the GI50 (HOP-92) was 16.7 µM (inactive) and 27.3 µM (inactive), the GI50 (IGROV-1) was 69.5 µM (inactive) and > 45.7 µM (inactive) and the GI50 (MDA-MB-435) was > 100 µM (inactive) and > 92.3 µM (inactive). For the same compound, the GI50 (MDA-N) was > 76 µM (inactive), the GI50 (NCI-H226) was > 68.7 µM (inactive) and 52.1 µM (inactive) and the GI50 (NCI-H460) was > 87.3 µM (inactive) and 43.9 µM (inactive). The GI50 (NCI/ADR-RES) was > 100 µM (inactive) and > 89.1 µM (inactive), the GI50 (OVCAR-5) was 34.8 µM (inactive) and > 65.3 µM (inactive) and the GI50 (RXF 631) was > 100 µM (inactive). For the same compound, the GI50 (SF-295) was 44.9 µM (inactive) and 35.9 µM (inactive), the GI50 (SK-MEL-5) was > 42.5 µM (inactive) and 66.8 µM (inactive) and the GI50 (SK-OV-3) was > 61.1 µM (inactive) and 44.5 µM (inactive). The GI50 (SNB-19) was > 57 µM (inactive), the GI50 (T47D) was > 100 µM (inactive) and the GI50 (XF498) was 15.1 µM (inactive).

Cc1cc(N(CCC#N)CCC#N)ccc1/C=C1\N=C(c2cc([N+](=O)[O-])ccc2Cl)N(NC(=O)c2ccc(/N=C\c3ccc(N(CCC#N)S(C)(=O)=O)cc3C)cc2)C1=O was tested, and the GI50 (786-0) was > 100 µM (inactive), the GI50 (A498) was > 100 µM (inactive) and the GI50 (A549) was > 100 µM (inactive). The GI50 (ACHN) was 89.9 µM (inactive), the GI50 (CAKI-1) was > 100 µM (inactive) and the GI50 (CCRF-CEM) was 76.4 µM (inactive). The GI50 (COLO 205) was > 100 µM (inactive), the GI50 (DLD-1) was 63.5 µM (inactive) and the GI50 (DMS-114) was 85.5 µM (inactive). For the same compound, the GI50 (DMS-273) was 41.5 µM (inactive), the GI50 (EKVX) was > 100 µM (inactive) and the GI50 (HCC 2998) was > 100 µM (inactive). The GI50 (HCT-116) was > 100 µM (inactive), the GI50 (HCT-15) was 33 µM and the GI50 (HL-60) was 61.4 µM (inactive). The GI50 (HOP-18) was > 100 µM (inactive), the GI50 (HOP-62) was 63.5 µM (inactive) and the GI50 (HOP-92) was 98.9 µM (inactive). For the same compound, the GI50 (HT-29) was 54.5 µM (inactive), the GI50 (IGROV-1) was > 100 µM (inactive) and the GI50 (K562) was 31.9 µM (inactive). For the same compound, the GI50 (KM-20L2) was 58.2 µM (inactive), the GI50 (KM12) was > 100 µM (inactive) and the GI50 (LOX IMVI) was > 100 µM (inactive). The GI50 (LXFL 529) was 64.3 µM (inactive), the GI50 (M14) was 37.9 µM (inactive) and the GI50 (M19-MEL) was 73.1 µM (inactive). The GI50 (Malme-3M) was > 100 µM (inactive), the GI50 (NCI-H226) was > 100 µM (inactive) and the GI50 (NCI-H23) was > 100 µM (inactive). The GI50 (NCI-H460) was > 100 µM (inactive), the GI50 (NCI-H522) was > 100 µM (inactive) and the GI50 (OVCAR-3) was > 100 µM (inactive). For the same compound, the GI50 (OVCAR-4) was > 100 µM (inactive), the GI50 (OVCAR-5) was > 100 µM (inactive) and the GI50 (OVCAR-8) was > 100 µM (inactive). For the same compound, the GI50 (RPMI-8226) was > 100 µM (inactive), the GI50 (RXF 393) was > 100 µM (inactive) and the GI50 (RXF 631) was > 100 µM (inactive). The GI50 (SF-268) was > 100 µM (inactive), the GI50 (SF-539) was > 100 µM (inactive) and the GI50 (SK-MEL-28) was > 100 µM (inactive). For the same compound, the GI50 (SK-MEL-2) was > 100 µM (inactive), the GI50 (SK-MEL-5) was 38.2 µM (inactive) and the GI50 (SK-OV-3) was > 100 µM (inactive). For the same compound, the GI50 (SN12C) was > 100 µM (inactive), the GI50 (SNB-19) was > 100 µM (inactive) and the GI50 (SNB-75) was > 100 µM (inactive). The GI50 (SNB-78) was > 100 µM (inactive), the GI50 (SW-620) was > 100 µM (inactive) and the GI50 (TK-10) was > 100 µM (inactive). The GI50 (U-251) was > 100 µM (inactive), the GI50 (UACC-257) was 63.4 µM (inactive) and the GI50 (UACC-62) was 24.2 µM (inactive). The GI50 (UO-31) was > 100 µM (inactive) and the GI50 (XF498) was > 100 µM (inactive).

In the case of CN1CC[C@]2(C)c3cc(O)ccc3CC3CCCC1C32C (stereo partly drawn), the GI50 (786-0) was > 100 µM (inactive), the GI50 (A498) was > 100 µM (inactive) and the GI50 (A549) was > 100 µM (inactive). The GI50 (ACHN) was > 100 µM (inactive), the GI50 (CAKI-1) was > 100 µM (inactive) and the GI50 (CCRF-CEM) was > 100 µM (inactive). The GI50 (COLO 205) was > 100 µM (inactive), the GI50 (DLD-1) was > 100 µM (inactive) and the GI50 (DMS-114) was > 100 µM (inactive). For the same compound, the GI50 (EKVX) was > 100 µM (inactive), the GI50 (HCC 2998) was 47.2 µM (inactive) and the GI50 (HCT-116) was > 100 µM (inactive). For the same compound, the GI50 (HCT-15) was > 100 µM, the GI50 (HL-60) was > 100 µM (inactive) and the GI50 (HOP-18) was 26.6 µM (inactive). For the same compound, the GI50 (HOP-62) was > 100 µM (inactive), the GI50 (HOP-92) was > 100 µM (inactive) and the GI50 (HT-29) was > 100 µM (inactive). For the same compound, the GI50 (IGROV-1) was > 100 µM (inactive), the GI50 (K562) was > 100 µM (inactive) and the GI50 (KM-20L2) was > 100 µM (inactive). For the same compound, the GI50 (KM12) was > 100 µM (inactive), the GI50 (LOX IMVI) was > 100 µM (inactive) and the GI50 (LXFL 529) was > 100 µM (inactive). For the same compound, the GI50 (M14) was > 100 µM (inactive), the GI50 (M19-MEL) was > 100 µM (inactive) and the GI50 (MOLT-4) was > 100 µM (inactive). The GI50 (Malme-3M) was > 100 µM (inactive), the GI50 (NCI-H226) was > 100 µM (inactive) and the GI50 (NCI-H23) was > 100 µM (inactive). The GI50 (NCI-H460) was > 100 µM (inactive), the GI50 (NCI-H522) was > 100 µM (inactive) and the GI50 (OVCAR-3) was > 100 µM (inactive). For the same compound, the GI50 (OVCAR-5) was > 100 µM (inactive), the GI50 (OVCAR-8) was > 100 µM (inactive) and the GI50 (RPMI-8226) was > 100 µM (inactive). The GI50 (RXF 393) was > 100 µM (inactive), the GI50 (RXF 631) was > 100 µM (inactive) and the GI50 (SF-268) was > 100 µM (inactive). For the same compound, the GI50 (SF-295) was > 100 µM (inactive), the GI50 (SF-539) was > 100 µM (inactive) and the GI50 (SK-MEL-28) was > 100 µM (inactive). The GI50 (SK-MEL-5) was > 100 µM (inactive), the GI50 (SK-OV-3) was > 100 µM (inactive) and the GI50 (SN12C) was > 100 µM (inactive). The GI50 (SNB-19) was > 100 µM (inactive), the GI50 (SNB-75) was 92 µM (inactive) and the GI50 (SNB-78) was > 100 µM (inactive). For the same compound, the GI50 (SR) was > 100 µM (inactive), the GI50 (SW-620) was > 100 µM (inactive) and the GI50 (TK-10) was > 100 µM (inactive). For the same compound, the GI50 (U-251) was > 100 µM (inactive), the GI50 (UACC-257) was > 100 µM (inactive) and the GI50 (UACC-62) was > 100 µM (inactive). For the same compound, the GI50 (UO-31) was 89.7 µM (inactive) and the GI50 (XF498) was > 100 µM (inactive).
